Reference: patent US6132750A (Coletica, priority 1998, dated 2000)

Assay: Inhibition of the Fe2+ induced radical degradation of hyaluronic acid (viscosity drop)
Conditions: for Index of protection (%): hyaluronic acid 10 g/l, Fe2+ 620 ppm; for effect on the depolymerisation (radical cleavage) of hyaluronic acid in the presence of iron: in words
Method: The chelating microspheres prepared according to I2 are used to evaluate their capacity, via the trapping of ferrous iron Fe2+, to inhibit the radical degradation of hyaluronic acid, glycosarinoglycan implied in the moisturisation of the human dermis, which is therefore a particularly important target to protect in cosmetic and dermo-pharmaceutical applications.
A 10 g/l solution of hyaluronic acid of high molecular weight (>1,000,000g/mol or Daltons) is prepared in demineralised water. To this solution is added an amount of Fe2+ of 620 ppm.
Other chelating agents which are conventionally used in cosmetics were used and compared to the chelating microspheres, for their capacity to reduce the radical degradation of hyaluronic acid. Indices of protection, expressed in % of protection, are calculated by carrying out a ratio of the drop in viscosity observed by the presence of iron Fe2+ (620 ppm) in the presence of the chelating agent studied, and the drop in viscosity observed with and without iron Fe2+.

## O/N=C(/C(=N/O)c1ccco1)c1ccco1 [2-furyldioxime]
Concentration used 1.56 g/l
  Index of protection (%): 23.5%
Concentration used 9.37 g/l
  Index of protection (%): 50%

## O=C(O)CN(CCN(CC(=O)O)CC(=O)O)CC(=O)O [EDTA]
  effect on the depolymerisation (radical cleavage) of hyaluronic acid in the presence of iron: accelerated

## NO [Hydroxylamine]
Concentration used 6.25 g/l
  Index of protection (%): 0%

## Transferrin
Concentration used 125 mg/l
  Index of protection (%): 8.7%
  effect on the depolymerisation (radical cleavage) of hyaluronic acid in the presence of iron: accelerated
